This is an account of results in patent US9771358B2, “Dihydropyrimidine compounds and their application in pharmaceuticals” (SUNSHINE LAKE PHARMA CO., LTD., priority 2014, dated 2017).

Molecules are shown by their SMILES.

By EC50 is commonly meant the concentration at which the effect is half-maximal. A lower EC50 goes with an effect from little substance.

The first test relates to HBV. In words: In-vitro anti-HBV activity in stable HBV-producing cell line (HepG2.2.15), HBV DNA by qPCR. The following applies: Hepatitis B virus, 168 h; HepG2.2.15 cells, HBV DNA in culture fluid, day 7, top concentration 16.4 μM. Format: cell-based. How it is done:
HBV DNA contents in cell culture fluid were detected by the qPCR-based assay and 50% effective concentration (EC50) values of the compounds against HBV were calculated. Specific procedures are as follows:
HepG2.2.15 cells were seeded into each well of 96-well plates, 40,000 cells per well. Cells were treated with cell culture medium containing compounds with different concentrations for 24 hours after cell seeding. The final concentration of each compound was 16.4 μM in each well and each compound was diluted to desired concentration using 3-fold gradient dilution protocol, 9 diluted points in duplicate. The culture mediums containing the compounds were refreshed on day 4 post cell seeding. Culture media were collected from the HepG2.2.15 plates on day 7 post cell seeding followed by HBV DNA extraction.
HBV DNA extraction: The HBV DNA extraction was performed using QIAamp 96 DNA Blood Kit (QIAGEN 51161).
PCR for quantification: PCR mix was prepared according to PCR system. PCR mix was dispensed to 96-well optical reaction plates (special for quantification). The standard diluted proportionally was added. Then the sample was added; The plates were sealed with optical adhesive film; PCR system was performed according to programs.
Percentage of HBV inhibition of DNA replication by compound was calculated using the following equation: % Inh.=[1-HBV DNA quantity of sample/HBV DNA quantity of DMSO control]×100.
Calculating EC50 value of compounds to HBV replication: the EC50 values were calculated based on “four-parameter logistic equation” and using GraphPad Prism 5 analysis software.
Background: Quantitative PCR measures a nucleic acid by following its amplification.
`COC(=O)C1=C(CN2CCOC[C@@H]2CCC(=O)O)NC(c2nccs2)=N[C@H]1c1ccc(F)cc1Br` [Example 16, 3-((S)-4-(((R)-6-(2-Bromo-4-fluorophenyl)-5-(methoxycarbonyl)-2-(thiazol-2-yl)-3,6-dihydropyrimidin-4-yl)methyl)morpholin-3-yl)propanoic acid] came in with an EC50 of 9 nM.

In the case of `CCOC(=O)C1=C(CN2CCOC[C@@H]2CCC(=O)O)NC(c2nccs2)=N[C@H]1c1ccc(F)cc1Cl` [Example 17, 3-((S)-4-(((R)-6-(2-Chloro-4-fluorophenyl)-5-(ethoxycarbonyl)-2-(thiazol-2-yl)-3,6-dihydropyrimidin-4-yl)methyl)morpholin-3-yl)propanoic acid], the midpoint of the response, the EC50, lay at 12 nM.

With `COC(=O)C1=C(CN2CCOC[C@@H]2CCC(=O)O)NC(c2nccs2)=N[C@H]1c1ccc(F)cc1Cl` [Example 18, 3-((S)-4-(((R)-6-(2-Chloro-4-fluorophenyl)-5-(methoxycarbonyl)-2-(thiazol-2-yl)-3,6-dihydropyrimidin-4-yl)methyl)morpholin-3-yl)propanoic acid], the EC50 was 10 nM. This EC50 and that of the compound before are within 1.5-fold of each other.

The compound `CCOC(=O)C1=C(CN2CCOC[C@@H]2CCC(=O)O)NC(c2nccs2)=N[C@H]1c1ccc(Cl)cc1Cl` [Example 19, 3-((S)-4-(((R)-6-(2,4-Dichlorophenyl)-5-(ethoxycarbonyl)-2-(thiazol-2-yl)-3,6-dihydropyrimidin-4-yl)methyl)morpholin-3-yl)propanoic acid] gave an EC50 of 6 nM.

For `COC(=O)C1=C(CN2CCOC[C@@H]2CCC(=O)O)NC(c2nccs2)=N[C@H]1c1ccc(Cl)cc1Cl` [Example 20, 3-((S)-4-(((R)-6-(2,4-Dichlorophenyl)-5-(methoxycarbonyl)-2-(thiazol-2-yl)-3,6-dihydropyrimidin-4-yl)methyl)morpholin-3-yl)propanoic acid], the EC50 was 5.5 nM.

For `CCOC(=O)C1=C(CN2CCO[C@@H](CCC(=O)O)C2)NC(c2nccs2)=N[C@H]1c1ccc(F)cc1Br` [Example 21, 3-((S)-4-(((R)-6-(2-Bromo-4-fluorophenyl)-5-(ethoxycarbonyl)-2-(thiazol-2-yl)-3,6-dihydropyrimidin-4-yl)methyl)morpholin-2-yl)propanoic acid], a half-maximal response (EC50) required 93.6 nM.

In the case of `COC(=O)C1=C(CN2CCO[C@@H](CCC(=O)O)C2)NC(c2nccs2)=N[C@H]1c1ccc(F)cc1Br` [Example 22, 3-((S)-4-(((R)-6-(2-Bromo-4-fluorophenyl)-5-(methoxycarbonyl)-2-(thiazol-2-yl)-3,6-dihydropyrimidin-4-yl)methyl)morpholin-2-yl)propanoic acid], the EC50 was determined as 89 nM.

The compound `CCOC(=O)C1=C(CN2CCO[C@@H](CCC(=O)O)C2)NC(c2nccs2)=N[C@H]1c1ccc(F)cc1Cl` [Example 23, 3-((S)-4-(((R)-6-(2-Chloro-4-fluorophenyl)-5-(ethoxycarbonyl)-2-(thiazol-2-yl)-3,6-dihydropyrimidin-4-yl)methyl)morpholin-2-yl)propanoic acid] came in with a half-maximal effective concentration (EC50) of 110 nM.

`COC(=O)C1=C(CN2CCO[C@@H](CCC(=O)O)C2)NC(c2nccs2)=N[C@H]1c1ccc(F)cc1Cl` [Example 24, 3-((S)-4-(((R)-6-(2-Chloro-4-fluorophenyl)-5-(methoxycarbonyl)-2-(thiazol-2-yl)-3,6-dihydropyrimidin-4-yl)methyl)morpholin-2-yl)propanoic acid] came in with a concentration giving a half-maximal response (EC50) of 107 nM.

Turning to `CCOC(=O)C1=C(CN2CCO[C@@H](CCC(=O)O)C2)NC(c2nccs2)=N[C@H]1c1ccc(Cl)cc1Cl` [Example 25, 3-((S)-4-(((R)-6-(2,4-Dichlorophenyl)-5-(ethoxycarbonyl)-2-(thiazol-2-yl)-3,6-dihydropyrimidin-4-yl)methyl)morpholin-2-yl)propanoic acid], a half-maximal response (EC50) required 86 nM.

Turning to `COC(=O)C1=C(CN2CCO[C@@H](CCC(=O)O)C2)NC(c2nccs2)=N[C@H]1c1ccc(Cl)cc1Cl` [Example 26, 3-((S)-4-(((R)-6-(2,4-Dichlorophenyl)-5-(methoxycarbonyl)-2-(thiazol-2-yl)-3,6-dihydropyrimidin-4-yl)methyl)morpholin-2-yl)propanoic acid], the EC50 was determined as 82 nM.

`CCOC(=O)C1=C(CN2CCO[C@H](CCC(=O)O)C2)NC(c2nccs2)=N[C@@H]1c1ccc(F)cc1Br` [Example 35, 3-((R)-4-(((S)-6-(2-Bromo-4-fluorophenyl)-5-(ethoxycarbonyl)-2-(thiazol-2-yl)-3,6-dihydropyrimidin-4-yl)methyl)morpholin-2-yl)propanoic acid]: the EC50 was over 12200 nM.

As to `CCOC(=O)C1=C(CN2CCO[C@@H](CCC(=O)O)C2)NC(c2nccs2)=N[C@@H]1c1ccc(F)cc1Br` [Example 36, 3-((S)-4-(((S)-6-(2-Bromo-4-fluorophenyl)-5-(ethoxycarbonyl)-2-(thiazol-2-yl)-3,6-dihydropyrimidin-4-yl)methyl)morpholin-2-yl)propanoic acid], the EC50 was over 14500 nM.

As to `CCOC(=O)C1=C(CN2CCO[C@H](CCC(=O)O)C2)NC(c2nccs2)=N[C@@H]1c1ccc(F)cc1Cl` [Example 37, 3-((R)-4-(((S)-6-(2-Chloro-4-fluorophenyl)-5-(ethoxycarbonyl)-2-(thiazol-2-yl)-3,6-dihydropyrimidin-4-yl)methyl)morpholin-2-yl)propanoic acid], the EC50 is over 16400 nM.

Consider `CCOC(=O)C1=C(CN2CCO[C@@H](CCC(=O)O)C2)NC(c2nccs2)=N[C@@H]1c1ccc(F)cc1Cl` [Example 38, 3-((S)-4-(((S)-6-(2-Chloro-4-fluorophenyl)-5-(ethoxycarbonyl)-2-(thiazol-2-yl)-3,6-dihydropyrimidin-4-yl)methyl)morpholin-2-yl)propanoic acid], for which the EC50 was over 16400 nM.

`COC(=O)C1=C(CN2CCO[C@H](CCC(=O)O)C2)NC(c2nccs2)=N[C@@H]1c1ccc(F)cc1Cl` [Example 39, 3-((R)-4-(((S)-6-(2-Chloro-4-fluorophenyl)-5-(methoxycarbonyl)-2-(thiazol-2-yl)-3,6-dihydropyrimidin-4-yl)methyl)morpholin-2-yl)propanoic acid] had an EC50 of over 15200 nM.

`COC(=O)C1=C(CN2CCO[C@@H](CCC(=O)O)C2)NC(c2nccs2)=N[C@@H]1c1ccc(F)cc1Cl` [Example 40, 3-((S)-4-(((S)-6-(2-Chloro-4-fluorophenyl)-5-(methoxycarbonyl)-2-(thiazol-2-yl)-3,6-dihydropyrimidin-4-yl)methyl)morpholin-2-yl)propanoic acid] showed an EC50 of over 16400 nM.

The compound `COC(=O)C1=C(CN2CCO[C@H](CCC(=O)O)C2)NC(c2nccs2)=N[C@@H]1c1ccc(F)cc1Br` [Example 41, 3-((R)-4-(((S)-6-(2-Bromo-4-fluorophenyl)-5-(methoxycarbonyl)-2-(thiazol-2-yl)-3,6-dihydropyrimidin-4-yl)methyl)morpholin-2-yl)propanoic acid] yielded an EC50 of over 12800 nM.

In the case of `COC(=O)C1=C(CN2CCO[C@@H](CCC(=O)O)C2)NC(c2nccs2)=N[C@@H]1c1ccc(F)cc1Br` [Example 42, 3-((S)-4-(((S)-6-(2-Bromo-4-fluorophenyl)-5-(methoxycarbonyl)-2-(thiazol-2-yl)-3,6-dihydropyrimidin-4-yl)methyl)morpholin-2-yl)propanoic acid], the EC50 was over 15300 nM.

Compound `CCOC(=O)C1=C(CN2CCO[C@H](CCC(=O)O)C2)NC(c2nccs2)=N[C@@H]1c1ccc(Cl)cc1Cl` [Example 43, 3-((R)-4-(((S)-6-(2,4-Dichlorophenyl)-5-(ethoxycarbonyl)-2-(thiazol-2-yl)-3,6-dihydropyrimidin-4-yl)methyl)morpholin-2-yl)propanoic acid] registered an EC50 of over 11700 nM.

In turn, `CCOC(=O)C1=C(CN2CCO[C@@H](CCC(=O)O)C2)NC(c2nccs2)=N[C@@H]1c1ccc(Cl)cc1Cl` [Example 44, 3-((S)-4-(((S)-6-(2,4-Dichlorophenyl)-5-(ethoxycarbonyl)-2-(thiazol-2-yl)-3,6-dihydropyrimidin-4-yl)methyl)morpholin-2-yl)propanoic acid] returned an EC50 of over 14900 nM.

As to `COC(=O)C1=C(CN2CCO[C@H](CCC(=O)O)C2)NC(c2nccs2)=N[C@@H]1c1ccc(Cl)cc1Cl` [Example 45, 3-((R)-4-(((S)-6-(2,4-dichlorophenyl)-5-(methoxycarbonyl)-2-(thiazol-2-yl)-3,6-dihydropyrimidin-4-yl)methyl)morpholin-2-yl)propanoic acid], the concentration for a half-maximal effect (EC50) is over 11300 nM.

For the compound `COC(=O)C1=C(CN2CCO[C@@H](CCC(=O)O)C2)NC(c2nccs2)=N[C@@H]1c1ccc(Cl)cc1Cl` [Example 46, 3-((S)-4-(((S)-6-(2,4-Dichlorophenyl)-5-(methoxycarbonyl)-2-(thiazol-2-yl)-3,6-dihydropyrimidin-4-yl)methyl)morpholin-2-yl)propanoic acid], the EC50 was over 14200 nM.

For `CCOC(=O)C1=C(CN2CCOC[C@H]2CCC(=O)O)NC(c2nccs2)=N[C@@H]1c1ccc(F)cc1Br` [Example 47, 3-((R)-4-(((S)-6-(2-Bromo-4-fluorophenyl)-5-(ethoxycarbonyl)-2-(thiazol-2-yl)-3,6-dihydropyrimidin-4-yl)methyl)morpholin-3-yl)propanoic acid], the concentration giving a half-maximal response (EC50) was over 16400 nM.

Still in this test, the particulars now being: Hepatitis B virus, HepG2.2.15; isomers of compound of formular (II).
On to `CCOC(=O)C1=C(CN2CCO[C@@H](CCC(=O)O)C2)NC(c2nccs2)=N[C@H]1c1ccc(F)cc1Cl` [Example 23, 3-((S)-4-(((R)-6-(2-Chloro-4-fluorophenyl)-5-(ethoxycarbonyl)-2-(thiazol-2-yl)-3,6-dihydropyrimidin-4-yl)methyl)morpholin-2-yl)propanoic acid], for which the response was half-maximal at 110 nM (EC50).
